# PMC12670405, “Second-Generation AURKA-Targeting PROTACs: Structural Optimization toward in Vivo Degradation in Neuroblastoma” (Journal of Medicinal Chemistry, 2025)
# What was measured:
# Assay in all cases: KINOMEscan scanMAX
# Format in all cases: binding
# Details in all cases: read-out: Percent Control
# ACVR1 = molecular target: T1, ACVR1 (Homo sapiens, UniProt Q04771)
# T1 construct: purchased Eurofins Discovery (DiscoverX KINOMEscan scanMAX)
# Protocol: (§1) The kinome-wide binding assay was performed by Eurofins Discovery using the scanMAX screening platform. More information can be found on the Eurofins Discovery Web site.
# WEE1 = molecular target: T2, WEE1 (Homo sapiens, UniProt P30291)
# T2 construct: purchased Eurofins Discovery (DiscoverX KINOMEscan scanMAX)
# Protocol: as §1
# TSSK3 = molecular target: T3, TSSK3 (Homo sapiens, UniProt Q96PN8)
# T3 construct: purchased Eurofins Discovery (DiscoverX KINOMEscan scanMAX)
# Protocol: as §1
# PIK3CD = molecular target: T4, PIK3CD (Homo sapiens, UniProt O00329)
# T4 construct: purchased Eurofins Discovery (DiscoverX KINOMEscan scanMAX)
# Protocol: as §1
# [1] = molecular target: T5, JAK1(JH2domain-pseudokinase) (Homo sapiens, UniProt P23458)
# T5 construct: JAK1(JH2domain-pseudokinase); purchased Eurofins Discovery (DiscoverX KINOMEscan scanMAX)
# Protocol: as §1
# [2] = molecular target: T6, JAK2(JH1domain-catalytic) (Homo sapiens, UniProt O60674)
# T6 construct: JAK2(JH1domain-catalytic); purchased Eurofins Discovery (DiscoverX KINOMEscan scanMAX)
# Protocol: as §1
# NEK6 = molecular target: T7, NEK6 (Homo sapiens, UniProt Q9HC98)
# T7 construct: purchased Eurofins Discovery (DiscoverX KINOMEscan scanMAX)
# Protocol: as §1
# PHKG2 = molecular target: T8, PHKG2 (Homo sapiens, UniProt P15735)
# T8 construct: purchased Eurofins Discovery (DiscoverX KINOMEscan scanMAX)
# Protocol: as §1
# EGFR(L858R,T790M) = molecular target: T9, EGFR(L858R,T790M) (Homo sapiens, UniProt P00533, L858R/T790M)
# T9 construct: purchased Eurofins Discovery (DiscoverX KINOMEscan scanMAX)
# Protocol: as §1
# TGFBR2 = molecular target: T10, TGFBR2 (Homo sapiens, UniProt P37173)
# T10 construct: purchased Eurofins Discovery (DiscoverX KINOMEscan scanMAX)
# Protocol: as §1
# MYLK2 = molecular target: T11, MYLK2 (Homo sapiens, UniProt Q9H1R3)
# T11 construct: purchased Eurofins Discovery (DiscoverX KINOMEscan scanMAX)
# Protocol: as §1
# [3] = molecular target: T12, ABL1(F317I)-phosphorylated (Homo sapiens, UniProt P00519, F317I)
# T12 construct: purchased Eurofins Discovery (DiscoverX KINOMEscan scanMAX)
# Protocol: as §1
# STK39 = molecular target: T13, STK39 (Homo sapiens, UniProt Q9UEW8)
# T13 construct: purchased Eurofins Discovery (DiscoverX KINOMEscan scanMAX)
# Protocol: as §1
# DRAK2 = molecular target: T14, DRAK2 (Homo sapiens, UniProt O94768)
# T14 construct: purchased Eurofins Discovery (DiscoverX KINOMEscan scanMAX)
# Protocol: as §1
# FGFR3(G697C) = molecular target: T15, FGFR3(G697C) (Homo sapiens, UniProt P22607, G697C)
# T15 construct: purchased Eurofins Discovery (DiscoverX KINOMEscan scanMAX)
# Protocol: as §1
# DDR1 = molecular target: T16, DDR1 (Homo sapiens, UniProt Q08345)
# T16 construct: purchased Eurofins Discovery (DiscoverX KINOMEscan scanMAX)
# Protocol: as §1
# [4] = molecular target: T17, JAK1(JH1domain-catalytic) (Homo sapiens, UniProt P23458)
# T17 construct: JAK1(JH1domain-catalytic); purchased Eurofins Discovery (DiscoverX KINOMEscan scanMAX)
# Protocol: as §1
# EGFR = molecular target: T18, EGFR (Homo sapiens, UniProt P00533)
# T18 construct: purchased Eurofins Discovery (DiscoverX KINOMEscan scanMAX)
# Protocol: as §1
# AXL = molecular target: T19, AXL (Homo sapiens, UniProt P30530)
# T19 construct: purchased Eurofins Discovery (DiscoverX KINOMEscan scanMAX)
# Protocol: as §1
# LATS2 = molecular target: T20, LATS2 (Homo sapiens, UniProt Q9NRM7)
# T20 construct: purchased Eurofins Discovery (DiscoverX KINOMEscan scanMAX)
# Protocol: as §1
# ITK = molecular target: T21, ITK (Homo sapiens, UniProt Q08881)
# T21 construct: purchased Eurofins Discovery (DiscoverX KINOMEscan scanMAX)
# Protocol: as §1
# YSK4 = molecular target: T22, YSK4 (Homo sapiens, UniProt Q56UN5)
# T22 construct: purchased Eurofins Discovery (DiscoverX KINOMEscan scanMAX)
# Protocol: as §1
# TAOK2 = molecular target: T23, TAOK2 (Homo sapiens, UniProt Q9UL54)
# T23 construct: purchased Eurofins Discovery (DiscoverX KINOMEscan scanMAX)
# Protocol: as §1
# MEK3 = molecular target: T24, MEK3 (Homo sapiens, UniProt P46734)
# T24 construct: purchased Eurofins Discovery (DiscoverX KINOMEscan scanMAX)
# Protocol: as §1
# CAMK2G = molecular target: T25, CAMK2G (Homo sapiens, UniProt Q13555)
# T25 construct: purchased Eurofins Discovery (DiscoverX KINOMEscan scanMAX)
# Protocol: as §1
# MARK4 = molecular target: T26, MARK4 (Homo sapiens, UniProt Q96L34)
# T26 construct: purchased Eurofins Discovery (DiscoverX KINOMEscan scanMAX)
# Protocol: as §1
# MERTK = molecular target: T27, MERTK (Homo sapiens, UniProt Q12866)
# T27 construct: purchased Eurofins Discovery (DiscoverX KINOMEscan scanMAX)
# Protocol: as §1
# SRC = molecular target: T28, SRC (Homo sapiens, UniProt P12931)
# T28 construct: purchased Eurofins Discovery (DiscoverX KINOMEscan scanMAX)
# Protocol: as §1
# RET(M918T) = molecular target: T29, RET(M918T) (Homo sapiens, UniProt P07949, M918T)
# T29 construct: purchased Eurofins Discovery (DiscoverX KINOMEscan scanMAX)
# Protocol: as §1
# KIT-autoinhibited = molecular target: T30, KIT-autoinhibited (Homo sapiens, UniProt P10721)
# T30 construct: purchased Eurofins Discovery (DiscoverX KINOMEscan scanMAX)
# Protocol: as §1
# WNK3 = molecular target: T31, WNK3 (Homo sapiens, UniProt Q9BYP7)
# T31 construct: purchased Eurofins Discovery (DiscoverX KINOMEscan scanMAX)
# Protocol: as §1
# GSK3B = molecular target: T32, GSK3B (Homo sapiens, UniProt P49841)
# T32 construct: purchased Eurofins Discovery (DiscoverX KINOMEscan scanMAX)
# Protocol: as §1
# T28 sequence (P12931 whole entry): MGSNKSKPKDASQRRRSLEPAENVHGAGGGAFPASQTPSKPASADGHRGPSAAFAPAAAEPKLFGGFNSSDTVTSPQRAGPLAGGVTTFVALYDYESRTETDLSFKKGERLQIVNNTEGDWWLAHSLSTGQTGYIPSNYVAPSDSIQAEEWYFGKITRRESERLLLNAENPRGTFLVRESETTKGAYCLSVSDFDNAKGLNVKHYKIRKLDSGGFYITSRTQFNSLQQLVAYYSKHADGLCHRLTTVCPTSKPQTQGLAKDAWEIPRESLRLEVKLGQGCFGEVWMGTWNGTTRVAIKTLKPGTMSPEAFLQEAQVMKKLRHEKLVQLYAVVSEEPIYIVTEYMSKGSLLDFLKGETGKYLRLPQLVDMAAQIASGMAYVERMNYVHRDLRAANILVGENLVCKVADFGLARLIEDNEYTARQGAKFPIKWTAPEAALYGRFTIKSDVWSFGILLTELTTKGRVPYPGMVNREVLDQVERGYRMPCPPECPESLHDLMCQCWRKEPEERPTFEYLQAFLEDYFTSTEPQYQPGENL
# T2 sequence (P30291 whole entry): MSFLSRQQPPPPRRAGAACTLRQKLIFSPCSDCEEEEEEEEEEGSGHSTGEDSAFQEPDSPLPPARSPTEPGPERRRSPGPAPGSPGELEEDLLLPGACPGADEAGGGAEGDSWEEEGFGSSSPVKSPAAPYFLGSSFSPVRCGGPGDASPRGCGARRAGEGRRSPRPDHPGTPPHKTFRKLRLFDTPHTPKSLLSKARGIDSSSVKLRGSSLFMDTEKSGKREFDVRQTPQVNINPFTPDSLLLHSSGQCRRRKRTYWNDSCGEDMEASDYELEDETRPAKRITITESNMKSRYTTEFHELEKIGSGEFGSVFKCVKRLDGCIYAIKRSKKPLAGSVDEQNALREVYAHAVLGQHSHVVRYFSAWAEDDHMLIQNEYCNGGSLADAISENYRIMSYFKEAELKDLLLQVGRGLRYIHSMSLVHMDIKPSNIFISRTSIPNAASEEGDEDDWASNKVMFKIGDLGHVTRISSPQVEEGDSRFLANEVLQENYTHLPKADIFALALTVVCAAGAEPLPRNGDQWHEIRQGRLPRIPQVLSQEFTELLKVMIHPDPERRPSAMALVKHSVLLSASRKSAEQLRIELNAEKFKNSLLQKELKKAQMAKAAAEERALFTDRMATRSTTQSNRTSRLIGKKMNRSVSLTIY
# T18 sequence (P00533 25-1210): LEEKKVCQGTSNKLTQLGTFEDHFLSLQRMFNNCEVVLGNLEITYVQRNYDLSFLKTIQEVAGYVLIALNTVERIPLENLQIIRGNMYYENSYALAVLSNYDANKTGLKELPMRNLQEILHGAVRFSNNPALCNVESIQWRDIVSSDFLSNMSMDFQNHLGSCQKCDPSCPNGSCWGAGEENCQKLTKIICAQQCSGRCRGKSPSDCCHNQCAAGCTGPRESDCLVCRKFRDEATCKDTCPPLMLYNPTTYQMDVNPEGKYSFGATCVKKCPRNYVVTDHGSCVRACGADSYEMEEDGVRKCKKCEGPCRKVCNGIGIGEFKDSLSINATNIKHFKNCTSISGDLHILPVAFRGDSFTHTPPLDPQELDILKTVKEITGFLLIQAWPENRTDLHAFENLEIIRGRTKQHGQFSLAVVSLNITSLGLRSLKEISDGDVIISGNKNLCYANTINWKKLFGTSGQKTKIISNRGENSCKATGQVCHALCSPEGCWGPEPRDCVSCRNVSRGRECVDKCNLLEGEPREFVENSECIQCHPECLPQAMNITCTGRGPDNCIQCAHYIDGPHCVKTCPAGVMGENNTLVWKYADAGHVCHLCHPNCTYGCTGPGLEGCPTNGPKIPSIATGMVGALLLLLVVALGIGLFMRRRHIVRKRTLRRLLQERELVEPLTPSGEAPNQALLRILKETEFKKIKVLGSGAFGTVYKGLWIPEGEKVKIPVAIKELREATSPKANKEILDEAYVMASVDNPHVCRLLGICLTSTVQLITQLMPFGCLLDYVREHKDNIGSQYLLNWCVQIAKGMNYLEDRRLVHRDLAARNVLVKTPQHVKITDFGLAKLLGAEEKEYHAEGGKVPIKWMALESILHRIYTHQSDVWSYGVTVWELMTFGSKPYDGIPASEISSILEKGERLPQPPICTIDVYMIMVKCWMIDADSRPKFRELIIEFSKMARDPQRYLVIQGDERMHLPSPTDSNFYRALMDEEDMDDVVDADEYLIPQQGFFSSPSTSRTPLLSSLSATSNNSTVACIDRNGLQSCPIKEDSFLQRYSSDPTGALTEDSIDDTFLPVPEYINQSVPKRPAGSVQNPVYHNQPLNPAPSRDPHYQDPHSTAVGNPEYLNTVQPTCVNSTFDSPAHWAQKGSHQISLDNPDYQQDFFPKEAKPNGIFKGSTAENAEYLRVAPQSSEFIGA
# T24 sequence (P46734 whole entry): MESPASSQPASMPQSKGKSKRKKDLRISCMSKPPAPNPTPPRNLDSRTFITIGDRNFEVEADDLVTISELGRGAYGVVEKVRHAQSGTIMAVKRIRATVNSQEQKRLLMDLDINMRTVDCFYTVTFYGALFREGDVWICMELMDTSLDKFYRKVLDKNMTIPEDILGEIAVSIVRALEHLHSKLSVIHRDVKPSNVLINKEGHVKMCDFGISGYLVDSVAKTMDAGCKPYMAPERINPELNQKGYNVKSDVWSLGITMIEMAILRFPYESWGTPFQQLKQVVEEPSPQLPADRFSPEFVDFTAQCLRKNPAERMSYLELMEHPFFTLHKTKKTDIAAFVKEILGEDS
# T10 sequence (P37173 23-567): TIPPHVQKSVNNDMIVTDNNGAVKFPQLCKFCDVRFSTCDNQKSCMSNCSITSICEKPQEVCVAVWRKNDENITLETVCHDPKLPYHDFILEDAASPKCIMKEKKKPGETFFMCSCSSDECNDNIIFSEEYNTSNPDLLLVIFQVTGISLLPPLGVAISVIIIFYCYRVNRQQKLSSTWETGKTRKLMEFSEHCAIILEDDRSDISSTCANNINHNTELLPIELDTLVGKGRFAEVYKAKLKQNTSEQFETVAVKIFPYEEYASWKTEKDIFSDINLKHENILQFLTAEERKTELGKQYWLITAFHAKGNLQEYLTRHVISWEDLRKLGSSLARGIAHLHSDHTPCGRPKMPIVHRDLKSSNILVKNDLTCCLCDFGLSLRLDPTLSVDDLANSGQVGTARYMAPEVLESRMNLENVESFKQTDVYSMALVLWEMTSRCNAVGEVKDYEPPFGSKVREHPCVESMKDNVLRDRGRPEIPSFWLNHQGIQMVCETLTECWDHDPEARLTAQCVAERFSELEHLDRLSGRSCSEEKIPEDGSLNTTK
# T31 sequence (Q9BYP7 whole entry): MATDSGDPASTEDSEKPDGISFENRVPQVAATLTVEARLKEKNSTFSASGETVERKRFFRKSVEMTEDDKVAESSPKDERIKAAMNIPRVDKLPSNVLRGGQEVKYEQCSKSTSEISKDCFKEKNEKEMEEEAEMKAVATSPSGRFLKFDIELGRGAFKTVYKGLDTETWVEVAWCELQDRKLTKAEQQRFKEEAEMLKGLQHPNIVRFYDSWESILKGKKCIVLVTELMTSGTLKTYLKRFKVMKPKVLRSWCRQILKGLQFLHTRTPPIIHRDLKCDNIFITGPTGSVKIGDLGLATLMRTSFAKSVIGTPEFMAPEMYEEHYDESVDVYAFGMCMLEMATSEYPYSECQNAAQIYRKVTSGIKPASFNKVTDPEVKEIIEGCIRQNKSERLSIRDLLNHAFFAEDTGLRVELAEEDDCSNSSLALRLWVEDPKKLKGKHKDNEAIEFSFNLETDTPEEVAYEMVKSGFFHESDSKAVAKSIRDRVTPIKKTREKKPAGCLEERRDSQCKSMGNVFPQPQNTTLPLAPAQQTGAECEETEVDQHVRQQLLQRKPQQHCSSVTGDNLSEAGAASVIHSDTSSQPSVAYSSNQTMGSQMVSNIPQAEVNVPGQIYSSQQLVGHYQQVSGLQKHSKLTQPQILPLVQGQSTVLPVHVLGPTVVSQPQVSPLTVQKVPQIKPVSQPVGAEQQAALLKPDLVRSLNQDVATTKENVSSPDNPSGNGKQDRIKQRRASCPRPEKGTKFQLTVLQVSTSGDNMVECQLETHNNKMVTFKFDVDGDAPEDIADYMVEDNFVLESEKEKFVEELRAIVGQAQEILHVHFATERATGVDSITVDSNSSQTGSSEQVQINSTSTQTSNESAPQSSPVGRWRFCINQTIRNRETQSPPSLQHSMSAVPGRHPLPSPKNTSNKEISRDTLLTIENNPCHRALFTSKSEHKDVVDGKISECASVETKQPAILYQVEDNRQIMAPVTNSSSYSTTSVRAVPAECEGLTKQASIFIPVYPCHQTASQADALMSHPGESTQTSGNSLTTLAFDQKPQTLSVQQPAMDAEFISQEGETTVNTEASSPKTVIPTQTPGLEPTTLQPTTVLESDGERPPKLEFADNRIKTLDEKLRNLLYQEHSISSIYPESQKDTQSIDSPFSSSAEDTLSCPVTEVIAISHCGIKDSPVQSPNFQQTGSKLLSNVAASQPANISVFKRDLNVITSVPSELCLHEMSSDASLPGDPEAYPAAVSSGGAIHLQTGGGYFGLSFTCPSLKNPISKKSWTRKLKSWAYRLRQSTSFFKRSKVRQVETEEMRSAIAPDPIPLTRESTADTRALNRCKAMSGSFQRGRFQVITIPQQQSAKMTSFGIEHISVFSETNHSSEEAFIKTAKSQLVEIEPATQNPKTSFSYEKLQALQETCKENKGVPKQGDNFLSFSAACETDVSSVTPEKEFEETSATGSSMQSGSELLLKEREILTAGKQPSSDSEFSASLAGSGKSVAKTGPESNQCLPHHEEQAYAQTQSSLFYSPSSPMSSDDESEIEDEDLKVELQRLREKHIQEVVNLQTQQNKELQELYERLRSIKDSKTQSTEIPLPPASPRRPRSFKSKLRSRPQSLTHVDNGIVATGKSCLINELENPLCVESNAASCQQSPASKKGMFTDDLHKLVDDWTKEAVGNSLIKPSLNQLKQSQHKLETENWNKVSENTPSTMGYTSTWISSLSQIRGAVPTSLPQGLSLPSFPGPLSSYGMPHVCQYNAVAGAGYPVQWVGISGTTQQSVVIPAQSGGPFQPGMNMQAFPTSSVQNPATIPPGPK
compound,measurement,setting,value
Cc1cc(Nc2ccc(F)c(CC3(C(=O)N4CCC(F)(CN5CCN(c6ccc(N7CCC(=O)NC7=O)cn6)CC5)CC4)CCN(Cc4cccc(Cl)c4F)CC3)n2)n[nH]1 [SK5527],remaining binding at 0.1 µM,ACVR1; 100 nM,68%
same,remaining binding at 1 µM,ACVR1; 1000 nM,70%
same,remaining binding at 0.1 µM,WEE1; 100 nM,99%
same,remaining binding at 1 µM,WEE1; 1000 nM,87%
same,remaining binding at 0.1 µM,TSSK3; 100 nM,95%
same,remaining binding at 1 µM,TSSK3; 1000 nM,99%
same,remaining binding at 0.1 µM,PIK3CD; 100 nM,69%
same,remaining binding at 1 µM,PIK3CD; 1000 nM,87%
same,remaining binding at 0.1 µM,[1]; 100 nM,94%
same,remaining binding at 1 µM,[1]; 1000 nM,86%
same,remaining binding at 0.1 µM,[2]; 100 nM,91%
same,remaining binding at 1 µM,[2]; 1000 nM,65%
same,remaining binding at 0.1 µM,NEK6; 100 nM,96%
same,remaining binding at 1 µM,NEK6; 1000 nM,54%
same,remaining binding at 0.1 µM,PHKG2; 100 nM,95%
same,remaining binding at 1 µM,PHKG2; 1000 nM,97%
same,remaining binding at 0.1 µM,"EGFR(L858R,T790M); 100 nM",82%
same,remaining binding at 1 µM,"EGFR(L858R,T790M); 1000 nM",87%
same,remaining binding at 0.1 µM,TGFBR2; 100 nM,100%
same,remaining binding at 1 µM,TGFBR2; 1000 nM,100%
same,remaining binding at 0.1 µM,MYLK2; 100 nM,100%
same,remaining binding at 1 µM,MYLK2; 1000 nM,100%
same,remaining binding at 0.1 µM,[3]; 100 nM,95%
same,remaining binding at 1 µM,[3]; 1000 nM,69%
same,remaining binding at 0.1 µM,STK39; 100 nM,100%
same,remaining binding at 1 µM,STK39; 1000 nM,85%
same,remaining binding at 0.1 µM,DRAK2; 100 nM,100%
same,remaining binding at 1 µM,DRAK2; 1000 nM,100%
same,remaining binding at 0.1 µM,FGFR3(G697C); 100 nM,75%
same,remaining binding at 1 µM,FGFR3(G697C); 1000 nM,67%
same,remaining binding at 0.1 µM,DDR1; 100 nM,98%
same,remaining binding at 1 µM,DDR1; 1000 nM,93%
same,remaining binding at 0.1 µM,[4]; 100 nM,82%
same,remaining binding at 1 µM,[4]; 1000 nM,93%
same,remaining binding at 0.1 µM,EGFR; 100 nM,91%
same,remaining binding at 1 µM,EGFR; 1000 nM,82%
same,remaining binding at 0.1 µM,AXL; 100 nM,36%
same,remaining binding at 1 µM,AXL; 1000 nM,3.3%
same,remaining binding at 0.1 µM,LATS2; 100 nM,69%
same,remaining binding at 1 µM,LATS2; 1000 nM,43%
same,remaining binding at 0.1 µM,ITK; 100 nM,100%
same,remaining binding at 1 µM,ITK; 1000 nM,81%
same,remaining binding at 0.1 µM,YSK4; 100 nM,72%
same,remaining binding at 1 µM,YSK4; 1000 nM,72%
same,remaining binding at 0.1 µM,TAOK2; 100 nM,100%
same,remaining binding at 1 µM,TAOK2; 1000 nM,100%
same,remaining binding at 0.1 µM,MEK3; 100 nM,100%
same,remaining binding at 1 µM,MEK3; 1000 nM,82%
same,remaining binding at 0.1 µM,CAMK2G; 100 nM,100%
same,remaining binding at 1 µM,CAMK2G; 1000 nM,100%
same,remaining binding at 0.1 µM,MARK4; 100 nM,100%
same,remaining binding at 1 µM,MARK4; 1000 nM,100%
same,remaining binding at 0.1 µM,MERTK; 100 nM,90%
same,remaining binding at 1 µM,MERTK; 1000 nM,54%
same,remaining binding at 0.1 µM,SRC; 100 nM,66%
same,remaining binding at 1 µM,SRC; 1000 nM,33%
same,remaining binding at 0.1 µM,RET(M918T); 100 nM,95%
same,remaining binding at 1 µM,RET(M918T); 1000 nM,38%
same,remaining binding at 0.1 µM,KIT-autoinhibited; 100 nM,94%
same,remaining binding at 1 µM,KIT-autoinhibited; 1000 nM,84%
same,remaining binding at 0.1 µM,WNK3; 100 nM,82%
same,remaining binding at 1 µM,WNK3; 1000 nM,71%
same,remaining binding at 0.1 µM,GSK3B; 100 nM,82%
same,remaining binding at 1 µM,GSK3B; 1000 nM,78%
